For one series, the target named is T1, EGFR-SGLT1 interaction (Homo sapiens, UniProt P00533).
T1 construct: The full-length human EGFR was amplified with a forward primer EGFR-F; expressed in transfected cells; host or cells: HEK293
The series can be described thus: Immunoprecipitation coupled Western blot of EGFR-HA and SGLT1-Flag interaction in co-transfected HEK293 cells. It counts as cell-based. To be noted: WT-EGFR and SGLT1 co-transfected HEK293 cells; EGF 10 ng/ml or EGF plus AEE788 5 μM, 30-60 min; FIG. 3A. A general note: In western blotting, separated proteins are transferred to a membrane and probed.

The target in series [1] is T2, endogenous EGFR-SGLT1 interaction (Homo sapiens, UniProt P00533).
T2 construct: endogenous in cells; host or cells: PC3
The series can be described thus: Immunoprecipitation coupled Western blot of endogenous EGFR and SGLT1 interaction in PC3 cells. The format is cell-based. Conditions: PC3 cells treated with EGF or AEE788; FIG. 3B.

Series [2] deals with SGLT1. Kind of series: Western blot of SGLT1 level in SGLT1 and ΔAutoPhos-EGFR co-transfected HEK293 cells. It counts as cell-based, human. Conditions: FIGS. 2C-2D. An excerpt: In an embodiment, to determine whether proteasome is involved in loss of interaction with EGFR induced down-regulation of SGLT1, SGLT1 and ΔAutoPhos-EGFR co-transfected HEK293 cells can be treated with a proteasome inhibitor, such as but not limited to […]. For example, FIG. 2C illustrates a Western blot analysis of the effect of a proteasome inhibitor MG132 on the down-regulation of SGLT1 by ΔAutophos-EGFR. Actin may be used as a loading control. FIG. 2D, by way of example only, illustrates a densitometric quantification of bands in the Western blot of FIG. 2C. Asterisk marks indicate statistical significance between the linked representative groups from triplicate experiments.
HEK293 cells were transfected with plasmids expressing flagged SGLT1 alone or with indicated HA tagged EGFR constructs. After 24 hours of transfection, cells were washed in 1× phosphate buffered solution and lysed with RIPA buffer (50 mM Tris-HCl, pH 8.0, with 150 mM sodium chloride, 1.0% Igepal CA-630 (NP-40), 0.5% sodium deoxycholate, and 0.1% sodium dodecyl sulfate), supplemented with a protease inhibitors cocktail for 6 hours on a shaker at 4° C. The cell lysates were then centrifuged for 2 minutes at 12000× rpm. Supernatant were then incubated with sepharose protein A/G beads conjugated with anti-flag or anti-SGLT1 antibody for overnight at 4° C. […]

In another series the test system is EGFR. The series can be described thus: Western blot of EGFR level in PC3 cells. The format is cell-based. Conditions: FIG. 5B. An excerpt: (§1) In another embodiment, a peptide can destabilize EGFR and SGLT1 proteins of cancer cells. FIG. 5A, by way of example only, illustrates an embodiment of a peptide, called ESD-01 (SEQ ID NO: 001), which can destabilize EGFR and SGLT1 proteins of cancer cells. In one embodiment, the ESD-01 peptide can be selected from the SGLT1 interacting domain of EGFR. In another embodiment, ESD-01 comprises amino acids 1049-1062 of a human EGFR protein (GenBank: AAH94761.1). In still another embodiment, the effects of ESD-01 on the stability of EGFR and SGLT1 in cultured cells (e.g, PC3, MDA-MB-231, and HCT116 cells) can be determined by Western blot analysis. […] In still another embodiment, the effects of ESD-01 on the survivability of cultured cancer cells (e.g, PC3, MDA-MB-231, and HCT116 cells) can be determined by trypan blue uptake assay.
(§2) For Western blot (WB) analysis, cells were lysed with RIPA buffer (150 mM NaCl, 50 mM Tris-HCl, pH 7.4, 0.1% SDS, 1% TritonX-100, 1 mM EDTA, 1 mM PMSF, 20 μg/ml aprotinin, 20 μg/ml leupeptin, 20 μg/ml pepstatine, 1% sodium deoxycholate, 1 mM NaF, 1 mM Na3VO4, in H2O). Proteins separated by 8% SDS-PAGE were transferred to PVDF membrane followed by blocking with 5% nonfat dry milk and then incubation with primary antibodies at optimized concentrations for overnight at 4° C. […]

Series [3] deals with SGLT1. Kind of series: Western blot of SGLT1 level in PC3 cells. The format is cell-based. To be noted: FIG. 5B.
Excerpt: as §1, §2

The subject of the next series is PC3 cells. Kind of series: MTT cell growth assay, PC3 cells. The format is cell-based. To be noted: phlorizin 50 μM with/without Gefitinib 10 μM or Erlotinib 10 μM, 48 hs, FIG. 4C. As for the experimental part: (§3) It is well known that an increase in glucose levels can activate EGFR, that SGLT1 is over-expressed in prostate cancer tissues, and that prostate cancer is resistant to EGFR inhibitors. […] In an embodiment, SGLT1 and EGFR can synergistically promote prostate cancer growth. […] In one embodiment, the growth inhibitory effects of the treatments may be determined. […]
(§4) Cell growth was determined by 3-(4,5-dimethylthiazole-2-yl)-2,5-diphenyltetrazolium Bromide (MTT) assay in 96-well plates according to the protocol provided by the manufacture. […] Absorbance was measured by a MultiSkan plate reader (Thermo Fisher Scientific, NC) at 570 nm. […] Cell viability was determined by trypan blue uptake assay. The percentage of live cells were counted in areas (n=3 for each sample) randomly selected under 10× magnificence of triplicates. […]
For orientation: Formazan colour is commonly taken as a measure of viable cells.

The test system of the next series is LNCaP cells. The series can be described thus: MTT cell growth assay, LNCaP cells. The format is cell-based. To be noted: phlorizin 50 μM with/without Gefitinib 10 μM or Erlotinib 10 μM, 48 hs, FIG. 4D. As for the experimental part: as §3, §4
Series [4] has as its system prostate cancer PC3 cells. The series can be described thus: Trypan blue uptake assay, PC3 cells. The format is cell-based. To be noted: 100 μM for 24 hours, FIG. 6.
Excerpt: as §1
(§5) Cell growth was determined by 3-(4,5-dimethylthiazole-2-yl)-2,5-diphenyltetrazolium Bromide (MTT) assay in 96-well plates according to the protocol provided by the manufacture. Briefly, 5000 cells suspended in 100 μL medium were seeded in each well of a 96-well plate. […] Absorbance was measured by a MultiSkan plate reader (Thermo Fisher Scientific, NC) at 570 nm. […] Cell viability was determined by trypan blue uptake assay. The percentage of live cells were counted in areas (n=3 for each sample) randomly selected under 10× magnificence of triplicates.

Series [5] concerns prostate cancer Du145 cells. Kind of series: Trypan blue uptake assay, Du145 cells. The format is cell-based. To be noted: 100 μM for 24 hours, FIG. 6.
Excerpt: as §1, §5

For series [6], the system named is breast cancer MDA-MB-231 cells. The series can be described thus: Trypan blue uptake assay, MDA-MB-231 cells. It counts as cell-based. Conditions: 100 μM for 24 hours, FIG. 6.
Excerpt: as §1, §5

The subject of series [7] is colon cancer HCT116 cells. Kind of series: Trypan blue uptake assay, HCT116 cells. It counts as cell-based. Conditions: 100 μM for 24 hours, FIG. 6.
Excerpt: as §1, §5

Series [8] has as its system non-cancerous HEK293 cells. Kind of series: Trypan blue uptake assay, HEK293 cells. It counts as cell-based. Conditions: FIG. 6.
Excerpt: as §1, §5

Another series has as its system cancer cells. Kind of series: Killing of cancer cells in vitro, L- versus D-amino acid peptide. It counts as cell-based.
The target in series [9] is T3, wild type EGFR, HA tagged (human, full length, C-terminal HA tag) (human, UniProt P00533 25-1210).
T3 construct: whole, on cells; Expressed by transient transfection in HEK293 cells; tested in RIPA lysates by co-immunoprecipitation; also called WT; WT-EGFR; not shown: C-terminal HA tag
The series can be described thus: co-IP of SGLT1-Flag, Western blot for EGFR-HA, HEK293 cells treated with EGF or EGF plus AEE788.

Series [10] has as its target T4, endogenous EGFR of PC3 cells (UniProt P00533 25-1210, limits assumed).
T4 construct: whole, on cells; Co-precipitated from PC3 lysates with endogenous SGLT1
The series can be described thus: co-IP of endogenous SGLT1 (anti-SGLT1), Western blot for EGFR and pEGFR, PC3 cells treated with EGF or AEE788.

Entries after “also recorded” stand apart in the source; their conditions may differ. Peptide text beside a SMILES is read from it. * marks the point of attachment. Cbz = O=C(OCc1ccccc1)*

As to `CCN1CCN(Cc2ccc(-c3cc4c(N[C@H](C)c5ccccc5)ncnc4[nH]3)cc2)CC1` [AEE788], the “effect on EGFR-SGLT1 interaction (EGFR co-immunoprecipitated with SGLT1)” value at EGFR-SGLT1 interaction is reported as “neither EGF nor AEE788 significantly affects the EGFR-SGLT1 interaction”. Further, in series [1], the “effect on endogenous EGFR-SGLT1 interaction” value was “neither EGF nor AEE788 affect the EGFR-SGLT1 interaction”.
As to `CC(C)C[C@@H](C=O)NC(=O)[C@H](CC(C)C)NC(=O)[C@H](CC(C)C)NC(=O)OCc1ccccc1` [MG132] (Cbz-Leu-Leu-Leu-aldehyde), the “inhibition of down-regulation of SGLT1” value in the series with SGLT1 [2] was “can inhibit the down-regulation of SGLT1”. In the series with EGFR (ESD-01 200 μM for 6 hours), the “inhibition of ESD-01 induced EGFR down-regulation” value is listed as “inhibited”. Moreover, the “inhibition of ESD-01 induced SGLT1 down-regulation” value in the series on SGLT1 [3] (ESD-01 200 μM for 6 hours) is given as “inhibited”.
With `O=C(CCc1ccc(O)cc1)c1c(O)cc(O)cc1O[C@@H]1O[C@H](CO)[C@@H](O)[C@H](O)[C@H]1O` [Phlorizin], the “sensitization to growth inhibitory effects of Gefitinib and Erlotinib” value in the series with PC3 cells and in the series with LNCaP cells was “sensitizes; also recorded: significantly sensitize” throughout.
Take “ESD-01: synthesized peptide from the SGLT1 interacting domain of EGFR; comprises amino acids 1049-1062 of a human EGFR protein (GenBank: AAH94761.1) (LVWKQSCSSTSSTH; listed as Homo sapiens)”: the EGFR level entry in the series with EGFR (200 μM for 6 hours) is reported as “significantly down-regulates”. In addition, the SGLT1 level entry in the series with SGLT1 [3] (200 μM for 6 hours) is reported as “significantly down-regulates”. Also, the survivability entry is listed as “significantly reduces the survivability” in series [4]; “significantly reduces the survivability” in series [5]; “significantly reduces the survivability” in series [6]; “significantly reduces the survivability” in series [7]; “cannot reduce the survivability” in [8]. For the same molecule, the “killing cancer cells in vitro, peptide made of L-amino acids versus D-amino acids” value in the series with cancer cells was “equally effective”.

B1: flag tagged human SGLT1 (sodium/glucose co-transporter 1) (other, UniProt P13866 1-664, looked up)
chain: MDSSTWSPKTTAVTRPVETHELIRNAADISIIVIYFVVVMAVGLWAMFSTNRGTVGGFFLAGRSMVWWPIGASLFASNIGSGHFVGLAGTGAASGIAIGGFEWNALVLVVVLGWLFVPIYIKAGVVTMPEYLRKRFGGQRIQVYLSLLSLLLYIFTKISADIFSGAIFINLALGLNLYLAIFLLLAITALYTITGGLAAVIYTDTLQTVIMLVGSLILTGFAFHEVGGYDAFMEKYMKAIPTIVSDGNTTFQEKCYTPRADSFHIFRDPLTGDLPWPGFIFGMSILTLWYWCTDQVIVQRCLSAKNMSHVKGGCILCGYLKLMPMFIMVMPGMISRILYTEKIACVVPSECEKYCGTKVGCTNIAYPTLVVELMPNGLRGLMLSVMLASLMSSLTSIFNSASTLFTMDIYAKVRKRASEKELMIAGRLFILVLIGISIAWVPIVQSAQSGQLFDYIQSITSYLGPPIAAVFLLAIFWKRVNEPGAFWGLILGLLIGISRMITEFAYGTGSCMEPSNCPTIICGVHYLYFAIILFAISFITIVVISLLTKPIPDVHLYRLCWSLRNSKEERIDLDAEEENIQEGPKETIEIETQVPEKKKGIFRRAYDLFCGLEQHGAPKMTEEEEKAMKMKMTDTSEKPLWRTVLNVNGIILVTVAVFCHAYFA
notes: whole, on cells; Plasmid described in Blessing et al. 2012; Expressed in HEK293 cells and immunoprecipitated with anti-flag antibody; also called SGLT1-Flag; flagged SGLT1; not shown: Flag tag
With B1, the binding result in series [9] is “binds”.

B2: endogenous SGLT1 of PC3 cells (other, UniProt P13866 1-664, looked up)
chain: B1 chain
notes: whole, on cells; Immunoprecipitated from PC3 lysates with anti-SGLT1 antibody
For the molecule B2, the binding result in series [10] is given as “binds”.

The values are drawn from patent US9770482B2, “Targeting the EGFR-SGLT1 interaction for cancer therapy” (The University of Houston System, priority 2013, dated 2017).
